Test results: patent publication US20090048258A1, “Amide Compound” (priority 2005, published 2009)
Read-outs that look alike come from different tables or passages of the source.

Key:
Human DGAT1 = target: T1, Human DGAT1 (Homo sapiens, UniProt O75907); assay: DGAT inhibitory activity: [14C]-triglyceride synthesis by DGAT1 high expression Sf9 microsome; format: biochemical; settings: 25 μM [14C]-Oleoyl-CoA, 32° C., 15 min, read-out: DGAT inhibitory activity (according to IC50)
T1 construct: my translation of the primer: M-G-DYKDDDD-GDRGSSRRR) (N); made in house; host or cells: Sf9 insect cells (recombinant baculovirus BAC-DGAT1, pFASTBAC1); microsome fraction
T1 sequence (O75907 1-488): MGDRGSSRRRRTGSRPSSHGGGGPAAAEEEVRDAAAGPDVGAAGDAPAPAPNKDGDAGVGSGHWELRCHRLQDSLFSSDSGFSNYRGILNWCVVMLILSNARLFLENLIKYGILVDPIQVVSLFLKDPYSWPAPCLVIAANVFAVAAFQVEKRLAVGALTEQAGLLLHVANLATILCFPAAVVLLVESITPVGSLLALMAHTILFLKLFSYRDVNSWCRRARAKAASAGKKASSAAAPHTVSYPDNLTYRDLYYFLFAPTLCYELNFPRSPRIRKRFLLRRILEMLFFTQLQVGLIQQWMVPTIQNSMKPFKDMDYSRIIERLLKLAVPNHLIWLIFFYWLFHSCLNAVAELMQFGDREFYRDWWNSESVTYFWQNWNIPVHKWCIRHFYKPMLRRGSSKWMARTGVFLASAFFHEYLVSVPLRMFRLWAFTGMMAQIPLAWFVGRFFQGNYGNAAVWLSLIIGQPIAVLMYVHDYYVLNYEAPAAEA
Method in brief: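 DGAT1 was overexpressed from recombinant baculovirus in Sf9 cells, and microsomes from these cells were the enzyme source. Reactions ran in 100 mM Tris-HCl pH 7.5, 250 mM sucrose, 150 mM MgCl2 and 0.01% BSA. [14C]-triglyceride was extracted into chloroform, separated by TLC and quantified by imaging plate, with inhibition calculated against control and blank (no microsome) counts.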

[1] = Table 1, 25 μM dioleoylglycerol

IC50 (Human DGAT1; [1])	melting point	IC50 (Human DGAT1; Table 2, 25 μM dioleoylglycerol)	Structure (SMILES)
50 to 500 nM	139 to 140 °C	–	CCOc1ccc(C(=O)CCC(=O)Nc2sc(-c3ccccc3)nc2-c2ccccc2)cc1OCC [Example 16, 4-(3,4-diethoxyphenyl)-N-(2,4-diphenyl-1,3-thiazol-5-yl)-4-oxobutanamide]
50 to 500 nM	–	–	CCOC(=O)COc1ccc(C(=O)CCC(=O)Nc2nc(-c3ccccc3)c(Cc3ccccc3)s2)cc1 [Example 37]
–	–	50 to 500 nM	CCOc1ccc(C(=O)CCC(=O)Nc2cc(-c3ccccc3)c3ccc(/C=C/C(=O)O)cc3n2)cc1OCC [Example 83, (2E)-3-(2-{[4-(3,4-diethoxyphenyl)-4-oxobutanoyl]amino}-4-phenylquinoline-7-yl)acrylic acid]
